One block for each compound: values may come before it.
Key:
Experiment in all cases: KINOMEscan competition binding
Settings in all cases: compound 10.0 µM
MYLK (human) = MYLK (human) (UniProt Q15746)
PKN1 (human) = PKN1 (human) (UniProt Q16512)
PLK1 (human) = PLK1 (human) (UniProt P53350)
DCLK2 (human) = DCLK2 (human) (UniProt Q8N568)
PLK3 (human) = PLK3 (human) (UniProt Q9H4B4)
TTK (human) = TTK (human) (UniProt P33981)
DCLK1 (human) = DCLK1 (human) (UniProt O15075)
PRKCQ (human) = PRKCQ (human) (UniProt Q04759)
MAPK7 (human) = MAPK7 (human) (UniProt Q13164)
NLK (human) = NLK (human) (UniProt Q9UBE8)
GAK (human) = GAK (human) (UniProt O14976)
ROS1 (human) = ROS1 (human) (UniProt P08922)
NUAK1 (human) = NUAK1 (human) (UniProt O60285)
STK16 (human) = STK16 (human) (UniProt O75716)
RPS6KA1 KD2 (human) = RPS6KA1 KD2 (human) (UniProt Q15418)
MKNK2 (human) = MKNK2 (human) (UniProt Q9HBH9)
PRKD1 (human) = PRKD1 (human) (UniProt Q15139)
RPS6KA6 KD2 (human) = RPS6KA6 KD2 (human) (UniProt Q9UK32)
AURKA (human) = AURKA (human) (UniProt O14965)
PRKAA1 (human) = PRKAA1 (human) (UniProt Q13131)
[1] = test system: KIT (human), P10721 [V559D/V654A]
FGFR4 (human) = FGFR4 (human) (UniProt P22455)
TNK2 (human) = TNK2 (human) (UniProt Q07912)
CAMKK2 (human) = CAMKK2 (human) (UniProt Q96RR4)
FLT3 (human) = FLT3 (human) (UniProt P36888)
MAP3K3 (human) = MAP3K3 (human) (UniProt Q99759)
PDGFRA (human) = PDGFRA (human) (UniProt P16234)
[2] = test system: RET (human), P07949 [V804L]
TAOK3 (human) = TAOK3 (human) (UniProt Q9H2K8)
AURKB (human) = AURKB (human) (UniProt Q96GD4)
TNK1 (human) = TNK1 (human) (UniProt Q13470)
[3] = test system: KIT (human), P10721 [V559D]
[4] = test system: FLT3 (human), P36888 [K663Q]
BMPR1B (human) = BMPR1B (human) (UniProt O00238)
KIT (human) = KIT (human) (UniProt P10721)
NUAK2 (human) = NUAK2 (human) (UniProt Q9H093)
ACVR1 (human) = ACVR1 (human) (UniProt Q04771)
PDGFRB (human) = PDGFRB (human) (UniProt P09619)
CSF1R (human) = CSF1R (human) (UniProt P07333)
[5] = target: TYK2 JH1 catalytic (human) (UniProt P29597)
PIP5K1A (human) = PIP5K1A (human) (UniProt Q99755)
[6] = test system: ABL1 (human), P00519 [T315I]
PIK3CA (human) = PIK3CA (human) (UniProt P42336)
AURKC (human) = AURKC (human) (UniProt Q9UQB9)
PLK4 (human) = PLK4 (human) (UniProt O00444)
[7] = test system: FLT3 (human), P36888 [ITD]
TAOK1 (human) = TAOK1 (human) (UniProt Q7L7X3)
CLK2 (human) = CLK2 (human) (UniProt P49760)
PIK3CD (human) = PIK3CD (human) (UniProt O00329)
PRKD3 (human) = PRKD3 (human) (UniProt O94806)
PIK3CG (human) = PIK3CG (human) (UniProt P48736)
MARK4 (human) = MARK4 (human) (UniProt Q96L34)
MERTK (human) = MERTK (human) (UniProt Q12866)
[8] = test system: RET (human), P07949 [M918T]
PRKCD (human) = PRKCD (human) (UniProt Q05655)
FLT4 (human) = FLT4 (human) (UniProt P35916)
BRSK2 (human) = BRSK2 (human) (UniProt Q8IWQ3)
SRPK1 (human) = SRPK1 (human) (UniProt Q96SB4)
STK33 (human) = STK33 (human) (UniProt Q9BYT3)

Chain of PLK1 (human) (P53350 whole entry, looked up): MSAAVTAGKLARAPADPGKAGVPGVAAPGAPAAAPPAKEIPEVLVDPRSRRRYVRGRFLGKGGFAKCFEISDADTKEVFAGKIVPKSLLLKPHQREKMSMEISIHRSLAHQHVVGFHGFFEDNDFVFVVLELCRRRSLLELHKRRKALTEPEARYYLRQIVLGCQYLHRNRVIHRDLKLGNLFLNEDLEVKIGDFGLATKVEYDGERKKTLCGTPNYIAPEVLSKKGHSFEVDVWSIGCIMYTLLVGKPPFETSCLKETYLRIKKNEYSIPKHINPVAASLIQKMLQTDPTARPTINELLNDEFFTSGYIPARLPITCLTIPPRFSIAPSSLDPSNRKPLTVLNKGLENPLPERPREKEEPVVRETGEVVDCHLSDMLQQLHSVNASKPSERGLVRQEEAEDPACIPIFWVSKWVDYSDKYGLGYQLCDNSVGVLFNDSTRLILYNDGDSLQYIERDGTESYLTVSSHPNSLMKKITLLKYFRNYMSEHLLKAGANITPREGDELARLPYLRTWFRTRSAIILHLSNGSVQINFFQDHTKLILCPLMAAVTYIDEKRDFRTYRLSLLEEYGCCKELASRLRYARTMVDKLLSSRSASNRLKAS
Chain of RET (human), P07949 [V804L] (P07949 whole entry V804L, looked up): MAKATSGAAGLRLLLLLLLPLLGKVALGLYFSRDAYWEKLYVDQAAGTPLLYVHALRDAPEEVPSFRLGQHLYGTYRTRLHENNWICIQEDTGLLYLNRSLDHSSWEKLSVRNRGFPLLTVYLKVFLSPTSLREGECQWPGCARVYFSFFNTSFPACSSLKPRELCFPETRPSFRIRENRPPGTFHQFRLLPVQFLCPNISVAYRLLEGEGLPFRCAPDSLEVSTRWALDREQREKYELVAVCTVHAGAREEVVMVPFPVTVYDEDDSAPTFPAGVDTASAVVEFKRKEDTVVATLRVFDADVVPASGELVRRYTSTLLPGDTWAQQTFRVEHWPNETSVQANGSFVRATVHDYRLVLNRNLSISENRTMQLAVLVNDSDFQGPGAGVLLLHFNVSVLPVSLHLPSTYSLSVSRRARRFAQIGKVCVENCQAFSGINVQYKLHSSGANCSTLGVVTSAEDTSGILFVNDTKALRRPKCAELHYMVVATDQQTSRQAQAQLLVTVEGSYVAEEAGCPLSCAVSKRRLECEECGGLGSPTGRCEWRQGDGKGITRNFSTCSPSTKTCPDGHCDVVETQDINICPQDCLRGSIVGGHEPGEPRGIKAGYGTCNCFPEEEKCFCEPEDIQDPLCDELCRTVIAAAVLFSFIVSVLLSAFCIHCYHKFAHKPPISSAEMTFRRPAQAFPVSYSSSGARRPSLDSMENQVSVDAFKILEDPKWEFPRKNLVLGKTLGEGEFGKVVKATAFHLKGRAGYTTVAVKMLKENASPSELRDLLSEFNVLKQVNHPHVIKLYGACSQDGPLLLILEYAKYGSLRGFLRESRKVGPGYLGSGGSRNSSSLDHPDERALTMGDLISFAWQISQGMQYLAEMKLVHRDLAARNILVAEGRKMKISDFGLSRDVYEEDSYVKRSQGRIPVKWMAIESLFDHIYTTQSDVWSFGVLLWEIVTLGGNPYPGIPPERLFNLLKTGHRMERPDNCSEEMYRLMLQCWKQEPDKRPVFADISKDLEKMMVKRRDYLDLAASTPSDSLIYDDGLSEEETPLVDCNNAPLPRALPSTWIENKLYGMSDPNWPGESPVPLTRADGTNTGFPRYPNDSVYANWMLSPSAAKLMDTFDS
Chain of PIP5K1A (human) (Q99755 whole entry, looked up): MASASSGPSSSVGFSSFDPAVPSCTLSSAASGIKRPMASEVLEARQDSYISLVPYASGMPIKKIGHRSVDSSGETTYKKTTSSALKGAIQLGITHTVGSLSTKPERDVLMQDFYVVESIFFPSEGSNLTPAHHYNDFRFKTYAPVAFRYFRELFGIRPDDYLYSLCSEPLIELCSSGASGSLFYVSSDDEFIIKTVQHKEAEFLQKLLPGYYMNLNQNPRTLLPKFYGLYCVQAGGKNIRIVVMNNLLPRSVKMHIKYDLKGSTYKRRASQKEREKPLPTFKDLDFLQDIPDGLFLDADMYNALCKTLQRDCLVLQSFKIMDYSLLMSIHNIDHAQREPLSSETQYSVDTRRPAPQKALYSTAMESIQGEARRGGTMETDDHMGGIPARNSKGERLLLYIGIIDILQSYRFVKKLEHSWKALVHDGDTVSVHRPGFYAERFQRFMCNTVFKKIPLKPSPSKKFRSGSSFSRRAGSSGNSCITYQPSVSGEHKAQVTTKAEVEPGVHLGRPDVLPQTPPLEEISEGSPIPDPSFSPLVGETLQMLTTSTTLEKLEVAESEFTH
Chain of GAK (human) (O14976 whole entry, looked up): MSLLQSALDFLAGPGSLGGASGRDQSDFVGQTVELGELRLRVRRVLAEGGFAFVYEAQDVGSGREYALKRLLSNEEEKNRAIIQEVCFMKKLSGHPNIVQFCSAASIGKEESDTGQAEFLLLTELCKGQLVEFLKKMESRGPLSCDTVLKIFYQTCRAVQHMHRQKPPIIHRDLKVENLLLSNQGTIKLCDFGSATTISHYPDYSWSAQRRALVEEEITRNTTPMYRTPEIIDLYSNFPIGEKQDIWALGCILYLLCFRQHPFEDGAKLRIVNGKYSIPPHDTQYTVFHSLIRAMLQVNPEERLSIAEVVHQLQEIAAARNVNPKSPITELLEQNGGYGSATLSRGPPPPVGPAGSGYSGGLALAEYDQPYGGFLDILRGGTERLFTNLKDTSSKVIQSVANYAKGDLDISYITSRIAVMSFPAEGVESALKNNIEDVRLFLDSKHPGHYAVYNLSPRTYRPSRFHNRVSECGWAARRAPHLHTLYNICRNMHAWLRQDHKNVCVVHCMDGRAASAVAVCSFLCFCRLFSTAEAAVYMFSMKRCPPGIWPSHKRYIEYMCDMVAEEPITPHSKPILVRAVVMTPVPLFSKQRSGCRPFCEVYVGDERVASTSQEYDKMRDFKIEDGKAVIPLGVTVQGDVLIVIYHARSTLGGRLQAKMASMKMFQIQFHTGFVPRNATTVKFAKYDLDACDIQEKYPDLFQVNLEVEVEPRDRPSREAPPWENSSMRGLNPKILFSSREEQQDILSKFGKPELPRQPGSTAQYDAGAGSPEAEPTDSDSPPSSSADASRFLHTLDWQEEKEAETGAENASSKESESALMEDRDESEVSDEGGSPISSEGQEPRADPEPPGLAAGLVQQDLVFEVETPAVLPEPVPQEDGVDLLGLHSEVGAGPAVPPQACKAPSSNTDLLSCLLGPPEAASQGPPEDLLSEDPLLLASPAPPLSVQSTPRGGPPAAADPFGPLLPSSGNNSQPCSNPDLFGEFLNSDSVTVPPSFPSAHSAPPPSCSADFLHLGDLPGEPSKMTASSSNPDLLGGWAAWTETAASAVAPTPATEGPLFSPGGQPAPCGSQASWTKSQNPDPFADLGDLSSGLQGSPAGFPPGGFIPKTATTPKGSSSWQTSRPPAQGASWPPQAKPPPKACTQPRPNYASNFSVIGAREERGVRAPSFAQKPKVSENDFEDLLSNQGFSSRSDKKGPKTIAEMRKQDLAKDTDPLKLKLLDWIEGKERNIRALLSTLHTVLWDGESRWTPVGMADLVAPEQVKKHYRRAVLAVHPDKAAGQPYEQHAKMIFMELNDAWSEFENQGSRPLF
Chain of DCLK1 (human) (O15075 whole entry, looked up): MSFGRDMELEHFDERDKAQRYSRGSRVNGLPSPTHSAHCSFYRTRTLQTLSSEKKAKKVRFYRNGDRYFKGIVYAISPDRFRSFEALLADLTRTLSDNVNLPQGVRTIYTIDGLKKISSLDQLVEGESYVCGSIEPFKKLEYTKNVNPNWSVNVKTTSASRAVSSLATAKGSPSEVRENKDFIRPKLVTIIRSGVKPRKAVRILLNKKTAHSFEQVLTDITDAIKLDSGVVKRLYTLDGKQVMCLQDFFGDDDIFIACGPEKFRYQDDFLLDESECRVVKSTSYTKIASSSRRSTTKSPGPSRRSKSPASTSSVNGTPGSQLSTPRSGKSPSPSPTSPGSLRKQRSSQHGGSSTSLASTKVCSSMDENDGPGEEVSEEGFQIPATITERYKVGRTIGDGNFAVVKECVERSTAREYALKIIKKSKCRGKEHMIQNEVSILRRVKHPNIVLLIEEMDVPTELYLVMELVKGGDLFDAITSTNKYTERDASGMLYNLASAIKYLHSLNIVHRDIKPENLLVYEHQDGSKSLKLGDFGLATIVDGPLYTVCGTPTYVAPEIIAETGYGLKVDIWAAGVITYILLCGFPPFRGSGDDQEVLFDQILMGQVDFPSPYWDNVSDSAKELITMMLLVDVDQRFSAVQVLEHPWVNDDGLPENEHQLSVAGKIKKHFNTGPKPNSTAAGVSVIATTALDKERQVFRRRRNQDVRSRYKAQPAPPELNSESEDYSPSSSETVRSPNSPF
Chain of DCLK2 (human) (Q8N568 whole entry, looked up): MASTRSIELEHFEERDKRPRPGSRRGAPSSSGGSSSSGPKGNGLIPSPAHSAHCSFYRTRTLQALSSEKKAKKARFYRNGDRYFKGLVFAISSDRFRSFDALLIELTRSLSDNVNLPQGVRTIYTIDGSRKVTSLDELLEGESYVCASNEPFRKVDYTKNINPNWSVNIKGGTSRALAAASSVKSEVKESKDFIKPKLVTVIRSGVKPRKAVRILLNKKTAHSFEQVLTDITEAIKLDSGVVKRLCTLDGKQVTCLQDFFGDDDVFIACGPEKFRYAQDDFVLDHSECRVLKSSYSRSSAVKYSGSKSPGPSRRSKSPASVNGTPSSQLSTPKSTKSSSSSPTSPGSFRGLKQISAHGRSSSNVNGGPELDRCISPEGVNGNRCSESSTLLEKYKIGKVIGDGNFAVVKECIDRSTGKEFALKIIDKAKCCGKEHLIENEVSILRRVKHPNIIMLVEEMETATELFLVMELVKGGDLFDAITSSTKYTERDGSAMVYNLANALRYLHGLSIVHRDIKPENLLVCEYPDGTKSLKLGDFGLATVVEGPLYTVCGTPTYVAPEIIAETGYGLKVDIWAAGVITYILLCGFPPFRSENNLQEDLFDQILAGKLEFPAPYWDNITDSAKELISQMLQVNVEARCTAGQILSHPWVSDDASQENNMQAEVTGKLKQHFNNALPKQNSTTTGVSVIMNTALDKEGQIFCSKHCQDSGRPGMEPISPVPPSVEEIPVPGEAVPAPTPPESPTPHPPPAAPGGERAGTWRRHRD

- kinase still bound, per cent of control (MYLK (human)): 25%
- kinase still bound, per cent of control (PKN1 (human)): 27%
- kinase still bound, per cent of control (PLK1 (human)): 16%
- kinase still bound, per cent of control (DCLK2 (human)): 24%
- kinase still bound, per cent of control (PLK3 (human)): 1.7%
- kinase still bound, per cent of control (TTK (human)): 13%
- kinase still bound, per cent of control (DCLK1 (human)): 29%
- kinase still bound, per cent of control (PRKCQ (human)): 31%
- kinase still bound, per cent of control (MAPK7 (human)): 0.15%
- kinase still bound, per cent of control (NLK (human)): 25%
- kinase still bound, per cent of control (GAK (human)): 33%
Structure (SMILES): COc1cc(C(N)=O)ccc1Nc1ncc2c(n1)N(C1CCCC1)[C@@H]1CCC[C@@H]1C(=O)N2C

- kinase still bound, per cent of control (ROS1 (human)): 28%
- kinase still bound, per cent of control (NUAK1 (human)): 30%
- kinase still bound, per cent of control (STK16 (human)): 31%
- kinase still bound, per cent of control (RPS6KA1 KD2 (human)): 34%
- kinase still bound, per cent of control (MKNK2 (human)): 1.6%
- kinase still bound, per cent of control (PRKD1 (human)): 21%
- kinase still bound, per cent of control (RPS6KA6 KD2 (human)): 30%
- kinase still bound, per cent of control (AURKA (human)): 8.2%
- kinase still bound, per cent of control (PRKAA1 (human)): 23%
- kinase still bound, per cent of control [1]: 26%
- kinase still bound, per cent of control (FGFR4 (human)): 25%
- kinase still bound, per cent of control (TNK2 (human)): 31%
- kinase still bound, per cent of control (CAMKK2 (human)): 31%
- kinase still bound, per cent of control (FLT3 (human)): 8.1%
- kinase still bound, per cent of control (MAP3K3 (human)): 2.2%
- kinase still bound, per cent of control (PDGFRA (human)): 8%
- kinase still bound, per cent of control [2]: 34%
- kinase still bound, per cent of control (TAOK3 (human)): 0.4%
- kinase still bound, per cent of control (AURKB (human)): 25%
- kinase still bound, per cent of control (TNK1 (human)): 0.6%
- kinase still bound, per cent of control [3]: 1.8%
- kinase still bound, per cent of control [4]: 12%
- kinase still bound, per cent of control (BMPR1B (human)): 19%
- kinase still bound, per cent of control (PLK1 (human)): 24%
- kinase still bound, per cent of control (KIT (human)): 3.1%
- kinase still bound, per cent of control (NUAK2 (human)): 22%
- kinase still bound, per cent of control (ACVR1 (human)): 29%
- kinase still bound, per cent of control (DCLK2 (human)): 0.5%
- kinase still bound, per cent of control (PDGFRB (human)): 2.6%
- kinase still bound, per cent of control (CSF1R (human)): 14%
- kinase still bound, per cent of control [5]: 18%
- kinase still bound, per cent of control (DCLK1 (human)): 0.3%
- kinase still bound, per cent of control (PIP5K1A (human)): 26%
- kinase still bound, per cent of control [6]: 19%
- kinase still bound, per cent of control (PIK3CA (human)): 33%
- kinase still bound, per cent of control (AURKC (human)): 3.7%
- kinase still bound, per cent of control (PLK4 (human)): 7.2%
- kinase still bound, per cent of control [7]: 33%
- kinase still bound, per cent of control (MAPK7 (human)): 0%
- kinase still bound, per cent of control (TAOK1 (human)): 1%
- kinase still bound, per cent of control (CLK2 (human)): 32%
- kinase still bound, per cent of control (PIK3CD (human)): 33%
- kinase still bound, per cent of control (PRKD3 (human)): 20%
- kinase still bound, per cent of control (PIK3CG (human)): 2.2%
- kinase still bound, per cent of control (GAK (human)): 33%
Structure (SMILES): CN1C(=O)c2ccccc2N(C)c2nc(Nc3ccc(N4CCC(O)CC4)cn3)ncc21

- kinase still bound, per cent of control (MARK4 (human)): 0%
- kinase still bound, per cent of control (MERTK (human)): 34%
- kinase still bound, per cent of control [2]: 0%
- kinase still bound, per cent of control [8]: 0%
- kinase still bound, per cent of control (PLK1 (human)): 17%
- kinase still bound, per cent of control (PRKCD (human)): 0%
- kinase still bound, per cent of control (FLT4 (human)): 0%
- kinase still bound, per cent of control (BRSK2 (human)): 0%
- kinase still bound, per cent of control (SRPK1 (human)): 0%
- kinase still bound, per cent of control (PIP5K1A (human)): 6.4%
- kinase still bound, per cent of control (STK33 (human)): 32%
Structure (SMILES): COc1cc(C(=O)NC2CCN(C)CC2)ccc1Nc1ncc2c(n1)N(C1CCCC1)CCC(=O)N2C(C)C
